This is an account of results in US5847123A, “Imide derivatives for inhibiting the production of interleukin-1β and the production of tumor necrosis factor α” (Nisshin Flour Milling Co., Ltd., priority 1996, dated 1998).

Data set [1] relates to IL-1β production. The experiment in a line: Inhibitory activity of the IL-1β production in PMA/polyinosic acid-stimulated THP-1 cells (enzyme immunoassay). The format is cell-based, human (THP-1 cells). The following applies: Homo sapiens, PMA 2 μg/ml and polyinosic acid 200 μg/ml, 22 hours. The procedure: (§1) Determination for the inhibitory activity of the IL-1β production and the inhibitory activity of the TNFα production
(§2) The THP-1 cells, which is the monocyte-established cell line derived from human peripheral blood (ATCC TIB202), were incubated at 37° C. in a 5% CO2 incubator in RPMI 1640 medium (available from Bio-Whittaker Co., Ltd.) containing 10% (v/v) of fetal bovine serum, 2 mM of glutamine, 50 μM of 2-mercaptoethanol, 60 μg/ml of penicillin and 100 μg/ml of streptomycin. The THP-1 cells maintained as described above were centrifuged at 1200 rpm at room temperature for 3 minutes to recover the cells in a 50 ml conical tube. The cell pellets thus obtained were resuspended in RPMI 1640 medium containing 2% (v/v) of fetal bovine serum and the glutamine, 2-mercaptoethanol and antibiotics as described above so as to provide a final THP-1 cell concentration of 2×10^6 cells/ml.
(§3) The cell resuspension having the above concentration was dispensed in 0.5 ml portions to a 24-well plate for cell culture. Then, 2.5 μl each of the solutions of the present imide derivatives dissolved in DMSO was added to each well. The plate was then incubated at 37° C. in a 5% CO2 incubator for one hour. Then, 12-o-tetradecanoylphorbol-13-acetate (hereinafter referred to as PMA) and polyinosic acid were added to each well so as to provide the final concentrations of 2 μg/ml and 200 μg/ml, respectively. The plate was further incubated at 37° C. in a 5% CO2 incubator for 22 hours and the IL-1β and TNFα produced in the cultured broth were assayed. The assay for IL-1β was carried out by means of the enzyme immunoassay kit available from Cayman Chemical Co., Ltd., while the assay of TNFα was done by means of the ELIZA kit available from Genzyme Co., Ltd.
(§4) The inhibitory activity was expressed in terms of IC50 values, wherein the produced amount of IL-1β and the produced amount of TNFα when no imide derivative was added are defined as 100, respectively, and the concentration of each imide derivative of the present invention to inhibit the IL-1β production and TNFα production is defined as IC50, respectively.

The test system of data set [2] is TNFα production. In words: Inhibitory activity of the TNFα production in PMA/polyinosic acid-stimulated THP-1 cells (ELIZA kit). Particulars: Homo sapiens, PMA 2 μg/ml and polyinosic acid 200 μg/ml, 22 hours. The format is cell-based, human (THP-1 cells). The procedure: as §1, §2, §3, §4
Data set [3] concerns TNFα production. In words: Inhibitory activity of the TNFα production in LPS-treated mice (blood TNFα level). The format is in vivo, DBA/2 strain mice. Particulars: for Inhibitory rate (%) of TNFα production: 10 mg/kg i.p. twice (before and after 30 minutes from LPS 5.6 mg/kg i.v.), blood TNFα after 2 hours; for inhibitory activity on the TNFα production in mice (in words): 10 mg/kg i.p., LPS-treated DBA/2 mice. The procedure:
Determination for the inhibitory activity of the TNFα production To the DBA/2 strain mice previously given with LPS 5.6 mg/kg, i.v. were intraperitoneally administered twice before and after 30 minutes from the LPS administration the present imide derivatives selected from Compound 1, Compound 3, Compound 7, Compound 8, Compound 9 and Compound 26. After 2 hours from the LPD administration, the blood TNFα level was determined to investigate the inhibitory activity of the present imide derivatives on the TNFα production. More specifically, the blood TNFα level was determined when the present imide derivative was given at a dose of 10 mg/kg to calculate the inhibitory rate of the TNFα production.

A short description of data set [4]: Determination for cytotoxicity in THP-1 cells (Alamar Blue). The format is cell-based. Particulars: human, 24 hours incubation, read-out: LD50 (lethal dose for 50% in the THP-1 cells). The procedure:
Determination for Cytotoxicity The THP-1 cells, which is the monocyte-established cell line derived from human peripheral blood (ATCC TIB202), were incubated at 37° C. in a 5% CO2 incubator in RPMI 1640 medium (available from Bio-Whittaker Co., Ltd.) containing 10% (v/v) of fetal bovine serum, 2 mM of glutamine, 50 μM of 2-mercaptoethanol, 60 μg/ml of penicillin and 100 μg/ml of streptomycin. The THP-1 cells maintained as described above were centrifuged at 1200 rpm at room temperature for 3 minutes to recover the cells in a 50 ml conical tube. The cell pellets thus obtained were suspended in RPMI 1640 medium containing 2% (v/v) of fetal bovine serum, 2 mM of glutamine, 50 μM of 2-mercaptoethanol, 60 μg/ml of penicillin and 100 μg/ml of streptomycin so as to provide the final cell concentration of 1×10^6 cells/ml. The cell suspension obtained as above was dispensed in 1 ml portions to a 24-well plate for cell culture. Then, 5 μl each of the solutions of the present imide derivatives dissolved in DMSO was added to each well. The plate was then incubated at 37° C. in a 5% CO2 incubator for 24 hours. After incubation, 100 μl of Alamar Blue (available from Biosource Co., Ltd.) was added to each well and then the plate was further incubated at 37° C. in a 5% CO2 incubator for 3 hours. Thereafter, a supernatant was recovered and determined for a difference in absorbances at 570 nm and 600 nm. Cytotoxicity was then evaluated in accordance with the survival rates determined from the differences in absorbances. More specifically, the lethal dose for 50% (LD50) in the THP-1 cells were calculated.
A general note: Resazurin is reduced to fluorescent resorufin, in cell work by metabolically active cells.

A value given as a limit tells only on which side of the number the result lay.

Take `CCN(C(C)=O)C(=O)C#Cc1ccccc1` [Compound 18]: the values for the half-maximal inhibitory concentration (IC50) in data set [1] and in data set [2] were 5.7 µM and 4.4 µM, respectively.

In the case of `CC(=O)N(C(=O)C#Cc1ccccc1)c1ccncc1` [Compound 26], the IC50 (usually the concentration that gives 50% inhibition) in data set [1] is 8.8 µM. Also, in data set [3], the “Inhibitory rate (%) of TNFα production” value worked out at 37% and the “inhibitory activity on the TNFα production in mice (in words)” value (“inhibitory activity” below) is on record as “significant inhibitory activity”. Also, in data set [2], the midpoint of inhibition, the IC50, lay at 1.7 µM.

Regarding `COC(=O)C1CCC(=O)N1C(=O)C#Cc1ccccc1` (racemic) [Compound 21], the IC50 in data set [1] was determined as 7 µM; in data set [2] it was 0.6 µM.

Take `O=C(C#Cc1ccccc1)N(Cc1ccc(F)cc1)C(=O)c1ccccc1` [Compound 13]: the IC50 in data set [1] and in data set [2] was 15 µM each time.

`CC(=O)N(C(=O)C#Cc1ccccc1)c1ccccn1` [Compound 22]: the results for the IC50 in data set [1] and in data set [2] were 12 µM and 14 µM, respectively.

As to `N#Cc1ccc(C#CC(=O)N2CCOC2=O)cc1` [Compound 5], the IC50 was 2.6 µM in data set [1] and 2.1 µM in data set [2].

On to `CCN(C(=O)C#Cc1ccccc1)C(=O)COC` [Compound 29], for which the IC50 in data set [1] and in data set [2] was greater than 30 µM throughout.

For `O=C(C#Cc1ccccc1)N(C(=O)c1ccccc1)c1ccc(F)cc1F` [Compound 27], the IC50 is 14 µM in data set [1] and 3 µM in data set [2].

As for `COc1ccccc1CN(C(C)=O)C(=O)C#Cc1ccccc1` [Compound 17], the IC50 in data set [1] was 3.1 µM; in data set [2], 1.8 µM.

In the case of `CC1CCC(=O)N1C(=O)C#Cc1ccccc1` (stereo not shown) [Compound 9], the half-inhibitory concentration (IC50) in data set [1] turned out to be 2.8 µM. In addition, in data set [3], the “Inhibitory rate (%) of TNFα production” value stood at 29% and the “inhibitory activity” value is “significant inhibitory activity”. Further, the CC50 at 24 h in data set [4] was determined as 110 µM. The compound also returned a half-inhibitory concentration (IC50) in data set [2] of 0.9 µM.

In data set [1], `O=C(C#Cc1ccccc1)N1CCCCCC1=O` [Compound 8] yielded an IC50 of 6 µM. In addition, in data set [3], the “Inhibitory rate (%) of TNFα production” value turned out to be 31% and the “inhibitory activity” value was “significant inhibitory activity”. In data set [4], the CC50 at 24 h is greater than 200 µM. Further, it took 2.1 µM to reach half-maximal inhibition in data set [2] (IC50).

For the compound `CCCCC(=O)N(CCCC)C(=O)C#Cc1ccccc1` [Compound 16], the values for the IC50 in data set [1] and in data set [2] were 13 µM and 14 µM, respectively.

For `CC(=O)NC(=O)C#Cc1ccccc1` [Compound 14], the IC50 stood at 4.4 µM in data set [1] and 1.8 µM in data set [2].

For the compound `O=C(C#Cc1ccc(Cl)cc1)N1CCCC1=O` [Compound 2], the IC50 is 5.5 µM in data set [1] and 1.6 µM in data set [2].

In the case of `CC(=O)N(Cc1ccco1)C(=O)C#Cc1ccccc1` [Compound 24], the IC50 in data set [1] is 10 µM; in data set [2] it was 4.4 µM.

As for `N#Cc1ccc(C#CC(=O)N2CCCC2=O)cc1` [Compound 4], the IC50 in data set [1] stood at 7 µM; in data set [2], 1.7 µM.

For `CC(=O)N(CCc1ccccc1)C(=O)C#Cc1ccccc1` [Compound 28], the IC50 in data set [1] was 8.8 µM; in data set [2], 1.7 µM.

As to `O=C(C#Cc1ccc(F)cc1)N1CCCC1=O` [Compound 3], the IC50 in data set [1] worked out at 3.8 µM. Also, in data set [3], the “Inhibitory rate (%) of TNFα production” value worked out at 37% and the “inhibitory activity” value is “significant inhibitory activity”. Also, in data set [4], the CC50 at 24 h is greater than 100 µM. Moreover, it took 1.3 µM to reach half-maximal inhibition in data set [2] (IC50).

For `O=C(C#Cc1ccccc1)N1CCOC1=O` [Compound 7], the concentration for half-maximal inhibition (IC50) worked out at 1.1 µM in data set [1] and 1.2 µM in data set [2]. Moreover, the “Inhibitory rate (%) of TNFα production” value in data set [3] amounted to 22%. In addition, the “inhibitory activity” value in data set [3] is given as “significant inhibitory activity”. The CC50 at 24 h in data set [4] was greater than 200 µM.

Regarding `CC(=O)N(C(=O)C#Cc1ccccc1)c1ccc2c(c1)OCO2` [Compound 15], the IC50 is 6.3 µM in data set [1] and 1.7 µM in data set [2].

On to `CCN(C(=O)C#Cc1ccccc1)C(=O)c1cccs1` [Compound 25], for which the IC50 is greater than 30 µM in data set [1] and 4.8 µM in data set [2].

Consider `O=C(C#Cc1ccc(F)cc1)N1CCOC1=O` [Compound 6], for which the half-inhibitory concentration (IC50) came out at 2.4 µM in data set [1] and 1.7 µM in data set [2]. Besides, in data set [4], the CC50 at 24 h is greater than 100 µM.

Regarding `CC(=O)N(CCN(C)C)C(=O)C#Cc1ccccc1` [Compound 30], the figures for the IC50 in data set [1] and in data set [2] were 6.3 µM and 3.7 µM, respectively.

For the compound `CCN(C(=O)C#Cc1ccccc1)C(=O)c1ccccc1` [Compound 12], the values for the IC50 in data set [1] and in data set [2] were 9.6 µM and 5.4 µM, respectively.

With `Cc1ccccc1N(C(=O)C#Cc1ccccc1)C(=O)CCc1ccccc1` [Compound 20], the IC50 in data set [1] was 1.3 µM; in data set [2] it was 1.9 µM.

For `O=C(C#Cc1ccccc1)N1CCN(C(=O)C#Cc2ccccc2)C1=O` [Compound 10], the results for the IC50 in data set [1] and in data set [2] were 6.7 µM and 0.5 µM, respectively.

Regarding `O=C(C#Cc1ccccc1)N1CCNC1=O` [Compound 11], the values for the IC50 in data set [1] and in data set [2] were 1.8 µM and 0.5 µM, respectively.

`CCN(C(=O)C#Cc1ccccc1)C(=O)Cc1ccccc1Cl` [Compound 19]: the IC50 in data set [1] was 2 µM; in data set [2] it was 1.3 µM.

With `O=C(C#Cc1ccccc1)N1CCCC1=O` [Compound 1], the half-maximal inhibitory concentration (IC50) in data set [1] came to 1.4 µM. In data set [3], the “Inhibitory rate (%) of TNFα production” value is 22% and the “inhibitory activity” value is reported as “significant inhibitory activity”. Also, in data set [4], the CC50 at 24 h worked out at 70 µM. In data set [2], it took 1 µM to reach half-maximal inhibition (IC50).
